The record followed here is the OligoGym collection.

In the series the target is KRAS. Particulars: ASO.

“And” between values parts separate entries of the source, which are not always exact repeats. Equal entries are not always repeated. After the bases stand the sugars from the 5' end (letter, count) and the backbone: PS all phosphorothioate, else s phosphorothioate and o phosphodiester by linkage. Methylation of C is not given here. e = 2'-O-(2-methoxyethyl) (MOE); k = constrained ethyl (cEt); d = 2'-deoxy (DNA)

“ATGGTGTAACATAGGT (sugars k3 d9 k3 e1, PS)” displayed a target mRNA inhibition (A431, 2 µM) of 47%. The same measure, in the same setting: to ATGACTAATAGCAGTG (sugars k3 d10 k3, PS) belongs 49%; to ATGGTTAGGGGAATTA (sugars k3 d10 k3, PS), 33%; to AATTACTTATGCAGAG (sugars k3 d10 k3, PS), 44%. On the same count and under the same terms, to AAAAAAAATTAATGTC (sugars k3 d10 k3, PS) belongs 14%; to AAAGTTCACATAAAGG (sugars k3 d10 k3, PS), 38%.

In the case of “CTTGATTTGTCAGCAG (sugars kdddddddddkekeke, PS)”, the target mRNA inhibition reads like this: (A431, 0.037 µM) 51%; (A431, 2 µM) 44%.

On to AAAGCTATTAGGAGTC (sugars k3 d10 k3, PS), for which, where the note is “A431, 2 µM”, the target mRNA inhibition came to 65%. On the same count and under the same terms, to GCTGTGAAACTCTCTA (sugars k3 d10 k3, PS) belongs 42%; to CTTTTAATGTCACAAG (sugars k3 d10 k3, PS), 9%.

In the case of “CCATTTATGTGACTAG (sugars k3 d9 k3 e1, PS)”, the target mRNA inhibition turned out to be 28% (A431, 0.185 µM); 47% (A431, 0.556 µM); 53% (A431, 1.667 µM); 49% (A431, 2 µM); 66% (A431, 5 µM).

On to TGATTTGTCAGCAGGA (sugars k3 d10 k3, PS), for which the target mRNA inhibition is 19% and 0% (A431, 0.185 µM); 58% and 36% (A431, 0.556 µM); 72% and 58% (A431, 1.667 µM); 59% (A431, 2 µM); 81% and 74% (A431, 5 µM). Turning to “TGATTTGTCAGCAGGA (sugars kkdddddddddkekek, PS)”, the target mRNA inhibition (A431, 2 µM) was 45%. The same measure, in the same setting: to “GCTGTGAAACTCTCTA (sugars kddddddddddkekek, PS)” belongs 41%; to “CTTGATTTGTCAGCAG (sugars kkkdddddddddkeke, PS)”, 46%. As to “GAGTCTTTATAGTAAT (sugars kdddddddddkekeke, PS)”, for the setting “A431, 2 µM”, the target mRNA inhibition was found to be 21%.

Take GTAGGGCATTTCTGAT (sugars k3 d10 k3, PS): where the note is “A431, 2 µM”, the target mRNA inhibition amounted to 14%. Sequence AAAAAAAAAATTAATG (sugars k3 d10 k3, PS) showed a target mRNA inhibition (A431, 2 µM) of 6%.

The sequence “AGATTGTGCTGAGCTT (sugars kkddddddddddkeke, PS)” returned a target mRNA inhibition (A431, 2 µM) of 40%. On to GATTGTGCTGAGCTTG (sugars k3 d10 k3, PS), for which, for the setting “A431, 2 µM”, the target mRNA inhibition is 63%. Same read-out and setting: to TACTTTTTGACAAATG (sugars k3 d10 k3, PS) belongs 37%; to TAATCTTTTAATGTCA (sugars k3 d10 k3, PS), 7%. On the same count and under the same terms, to ATGTAAATATAGCCCC (sugars k3 d10 k3, PS) belongs 28%; to “AGTGATTAGGTCAAAT (sugars kdddddddddkekeke, PS)”, 12%.

On to “CTTGATTTGTCAGCAG (sugars kkddddddddkekekk, PS)”, for which the target mRNA inhibition turned out to be 55% (A431, 0.037 µM) and 33% (A431, 2 µM).

ATTGTGCTGAGCTTGA (sugars k3 d10 k3, PS) displayed a target mRNA inhibition (A431, 2 µM) of 51%.

On to TCTCTATGAAAGCTCA (sugars k3 d10 k3, PS), for which the target mRNA inhibition (A431, 0.037 µM) worked out at 61%; the target mRNA inhibition (A431, 2 µM) came out at 50%; the target mRNA inhibition (A431, 5 µM) was 96% and 92%; the target mRNA inhibition (NCI-H460, 0.037 µM) was found to be 49.7%. For TAAAAAAAAAATTAAT (sugars k3 d10 k3, PS), the target mRNA inhibition (A431, 2 µM) turned out to be 1%.

As to GAAAAGTGTTTATGCA (sugars k3 d10 k3, PS), the target mRNA inhibition (A431, 2 µM) turned out to be 60%. Sequence “CATTCAAAGTTCACAT (sugars kdddddddddkekeke, PS)” yielded a target mRNA inhibition (A431, 2 µM) of 24%.

Consider “AGTGATTAGGTCAAAT (sugars kddddddddddkekek, PS)”, for which, for the setting “A431, 2 µM”, the target mRNA inhibition was 21%. Regarding ACTTATGCAGAGAAAA (sugars k3 d10 k3, PS), for the setting “A431, 2 µM”, the target mRNA inhibition is 37%. Still for that read-out and setting: to “ACCATTCAAAGTTCAC (sugars kkkddddddddkekek, PS)” belongs 26%; to TTAATGTCACAAGCAG (sugars k3 d10 k3, PS), 52%; to TCATTACTTTTTGACA (sugars k3 d10 k3, PS), 4%. On the same count and under the same terms, to TATTAGGAGTCTTTAT (sugars k3 d10 k3, PS) belongs 13%; to “TAGTGATTAGGTCAAA (sugars kkdddddddddkekek, PS)”, 51%.

In turn, “ACCATTCAAAGTTCAC (sugars kkddddddddddkeke, PS)” gave a target mRNA inhibition (A431, 2 µM) of 41%.

Consider ATCTTATGGTTAGGGG (sugars k3 d10 k3, PS), for which the target mRNA inhibition (A431, 2 µM) came to 20%. The same measure, in the same setting: to “TGATTTGTCAGCAGGA (sugars kddddddddddkekek, PS)” belongs 47%; to “AGTGTGACTCAGTTAA (sugars kkddddddddkekekk, PS)”, 47%. Consider AAACAAATGCTAATAA (sugars k3 d10 k3, PS), for which the target mRNA inhibition (A431, 2 µM) amounted to 9%. On the same count and under the same terms, to ATAATGGTGAATATCT (sugars k3 d10 k3, PS) belongs 41%; to “GTCCAGTGATACTTTC (sugars kkdddddddddkekek, PS)”, 43%.

CCATTTATGTGACTAG (sugars k3 d10 k3, PS): the target mRNA inhibition was 70% and 67% (A431, 0.125 µM); 30% and 14% (A431, 0.185 µM); 56% and 35% (A431, 0.556 µM); 94% and 75% (A431, 2 µM); 83% and 72% (A431, 5 µM); 52.4% (NCI-H460, 0.037 µM).

Turning to “TTGATTTGTCAGCAGG (sugars kdddddddddkekeke, PS)”, where the note is “A431, 2 µM”, the target mRNA inhibition came out at 22%.

TTGTTTAAAAAAAAAA (sugars k3 d10 k3, PS): the target mRNA inhibition (A431, 2 µM) was determined as 0%. Sequence TGGTGTAACATAGGTT (sugars k3 d10 k3, PS) registered a target mRNA inhibition (A431, 0.185 µM) of 0%; a target mRNA inhibition (A431, 0.556 µM) of 35%; a target mRNA inhibition (A431, 1.667 µM) of 61%; a target mRNA inhibition (A431, 2 µM) of 58%; a target mRNA inhibition (A431, 5 µM) of 78%.

As to “CATTCAAAGTTCACAT (sugars kkddddddddkekekk, PS)”, the target mRNA inhibition reads like this: (A431, 0.185 µM) 5%; (A431, 0.556 µM) 7%; (A431, 1.667 µM) 9%; (A431, 2 µM) 96%; (A431, 5 µM) 16%. TGTAGGGCATTTCTGA (sugars k3 d10 k3, PS): under “A431, 2 µM”, the target mRNA inhibition amounted to 0%.

TAGTGATTAGGTCAAA (sugars k3 d10 k3, PS) yielded a target mRNA inhibition (A431, 2 µM) of 21%. Regarding TACTAGTATGCCTTAA (sugars k3 d10 k3, PS), the target mRNA inhibition (A431, 2 µM) was 16%. On to AGGTAAAAGCTAACAG (sugars k3 d10 k3, PS), for which the target mRNA inhibition is, setting by setting: (A431, 0.037 µM) 46%; (A431, 2 µM) 41%; (NCI-H460, 0.037 µM) 37.3%.

For the sequence AAACGAGAATGGATAT (sugars k3 d10 k3, PS), under “A431, 2 µM”, the target mRNA inhibition stood at 12%. GCATTGCTAGTTCAAA (sugars k3 d10 k3, PS): the target mRNA inhibition (A431, 2 µM) was 46%. The same measure, in the same setting: to TAATAATCCCCATTTC (sugars k3 d10 k3, PS) belongs 9%; to “TTGATTTGTCAGCAGG (sugars kkkddddddddkdkdk, PS)”, 19%. Turning to “ACCATTCAAAGTTCAC (sugars kdddddddddkekeke, PS)”, under “A431, 2 µM”, the target mRNA inhibition was determined as 15%.

As to “GTGTTTATGCAATGTT (sugars kkkddddddddkekek, PS)”, the target mRNA inhibition runs as follows: (A431, 0.185 µM) 33%; (A431, 0.556 µM) 55%; (A431, 1.667 µM) 69%; (A431, 2 µM) 66%; (A431, 5 µM) 78%. Where the note is “A431, 2 µM”, AATTAATCCATTTATG (sugars k3 d10 k3, PS) registered a target mRNA inhibition of 16%.

For the sequence “TAGTGATTAGGTCAAA (sugars kkddddddddkekekk, PS)”, the target mRNA inhibition (A431, 2 µM) was 42%. Same read-out and setting: to “CAGTGTTAAGAGAACT (sugars kkddddddddkekekk, PS)” belongs 35%. On the same count and under the same terms, to CTGAATTAGTCTCCAT (sugars k3 d10 k3, PS) belongs 48%.

Sequence AAGCTATTAGGAGTCT (sugars k3 d10 k3, PS) yielded a target mRNA inhibition (A431, 2 µM) of 65%. Turning to CAAAGTTCACATAAAG (sugars k3 d10 k3, PS), the target mRNA inhibition (A431, 2 µM) was 21%. Take TTGATTTGTCAGCAGG (sugars k3 d10 k3, PS): the target mRNA inhibition is, setting by setting: (A431, 0.185 µM) 41%; (A431, 0.556 µM) 60%; (A431, 1.667 µM) 77%; (A431, 2 µM) 65% and 66% and 74%; (A431, 5 µM) 87%.

Under “A431, 2 µM”, “AGATTGTGCTGAGCTT (sugars kdddddddddkekeke, PS)” yielded a target mRNA inhibition of 0%. The same measure, in the same setting: to ATCCAGTATTAACACA (sugars k3 d10 k3, PS) belongs 0%. For the sequence GTGTTTATGCAATGTT (sugars k3 d10 k3, PS), the target mRNA inhibition was 83% (A431, 0.125 µM); 31% (A431, 0.185 µM); 52% (A431, 0.556 µM); 77% (A431, 1.667 µM); 89% (A431, 5 µM); 76.8% (NCI-H460, 0.037 µM). In the case of “CATTTATGTGACTAGA (sugars kddddddddddkekek, PS)”, the target mRNA inhibition (A431, 2 µM) is 24%. TTGCTATAATAATCCC (sugars k3 d10 k3, PS) registered a target mRNA inhibition (A431, 2 µM) of 39%.

As to CAGTGTGACTCAGTTA (sugars k3 d10 k3, PS), under “A431, 2 µM”, the target mRNA inhibition came to 53%. For “TCCATTTATGTGACTA (sugars k3 d9 k3 e1, PS)”, the target mRNA inhibition (A431, 2 µM) came out at 23%. Under “A431, 2 µM”, AAATCTTATGGTTAGG (sugars k3 d10 k3, PS) gave a target mRNA inhibition of 34%. On to ATAATAGTTTCCATTG (sugars k3 d10 k3, PS), for which the target mRNA inhibition (A431, 2 µM) worked out at 8%. “TTAGTGATTAGGTCAA (sugars kkddddddddddkeke, PS)” returned a target mRNA inhibition (A431, 2 µM) of 22%. The same measure, in the same setting: to GTTTATGCAATGTTAA (sugars k3 d10 k3, PS) belongs 55%.
